In ChEMBL document CHEMBL1781986, “Structure-activity relationships of pyrrole based S-nitrosoglutathione reductase inhibitors: pyrrole regioisomers and propionic acid replacement” (Bioorg Med Chem Lett, 2011):
The source made the active and inactive calls. The rule behind the calls is not given here.

Tests used:
Homo sapiens = species on record: Homo sapiens; test: Inhibition of human recombinant chloride channel at 10 uM by radioligand binding assay
[1] = molecular target: D(2) dopamine receptor (Homo sapiens) (UniProt P14416); test: Inhibition of human recombinant D2S receptor at 10 uM by radioligand binding assay
[2] = molecular target: Histamine H1 receptor (Homo sapiens) (UniProt P35367); test: Inhibition of human recombinant H1 receptor at 10 uM by radioligand binding assay
[3] = molecular target: Sodium-dependent serotonin transporter (Homo sapiens) (UniProt P31645); test: Inhibition of human recombinant 5HT transporter at 10 uM by radioligand binding assay
[4] = molecular target: T1, Type-1 angiotensin II receptor (Homo sapiens) (UniProt P30556); test: Inhibition of human recombinant AT1 receptor at 10 uM by radioligand binding assay
T1 sequence (whole entry): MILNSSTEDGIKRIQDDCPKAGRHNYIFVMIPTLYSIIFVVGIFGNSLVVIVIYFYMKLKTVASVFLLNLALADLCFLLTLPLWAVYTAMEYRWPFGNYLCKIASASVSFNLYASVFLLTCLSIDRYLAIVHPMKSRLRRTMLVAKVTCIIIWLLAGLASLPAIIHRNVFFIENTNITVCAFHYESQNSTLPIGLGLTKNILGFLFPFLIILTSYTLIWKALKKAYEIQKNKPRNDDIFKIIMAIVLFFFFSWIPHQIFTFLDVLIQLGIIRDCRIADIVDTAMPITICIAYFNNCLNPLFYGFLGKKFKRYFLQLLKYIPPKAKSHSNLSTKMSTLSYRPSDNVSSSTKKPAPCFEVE

[5] = molecular target: 5-hydroxytryptamine receptor 6 (Homo sapiens) (UniProt P50406); test: Inhibition of human recombinant 5HT6 receptor at 10 uM by radioligand binding assay
[6] = molecular target: Neurotensin receptor type 1 (Homo sapiens) (UniProt P30989); test: Inhibition of human recombinant NTS1 receptor at 10 uM by radioligand binding assay
[7] = molecular target: Kappa-type opioid receptor (Homo sapiens) (UniProt P41145); test: Inhibition of human recombinant KOP receptor at 10 uM by radioligand binding assay
[8] = molecular target: Small conductance calcium-activated potassium channel protein 1 (Homo sapiens) (UniProt Q92952); test: Inhibition of human recombinant Skca channel at 10 uM by radioligand binding assay
[9] = molecular target: T2, C-X-C chemokine receptor type 2 (Homo sapiens) (UniProt P25025); test: Inhibition of human recombinant CXCR2 receptor at 10 uM by radioligand binding assay
T2 sequence (whole entry): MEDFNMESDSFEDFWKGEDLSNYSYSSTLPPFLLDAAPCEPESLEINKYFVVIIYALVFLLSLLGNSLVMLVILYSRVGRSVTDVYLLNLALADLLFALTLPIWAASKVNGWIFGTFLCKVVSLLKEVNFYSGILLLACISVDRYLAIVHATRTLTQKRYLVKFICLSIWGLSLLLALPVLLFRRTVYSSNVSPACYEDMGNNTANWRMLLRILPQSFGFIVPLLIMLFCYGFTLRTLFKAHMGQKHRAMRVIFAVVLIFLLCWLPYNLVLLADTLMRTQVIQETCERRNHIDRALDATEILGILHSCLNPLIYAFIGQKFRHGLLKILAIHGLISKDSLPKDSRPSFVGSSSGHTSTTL

A549 = test: Cytotoxicity against human A549 cells; assay type: functional, cell-based
[10] = system: 5-hydroxytryptamine receptor 2A; test: Inhibition of human recombinant 5HT2A receptor at 10 uM by radioligand binding assay

Chain of Sodium-dependent serotonin transporter (Homo sapiens) (P31645 whole entry, looked up): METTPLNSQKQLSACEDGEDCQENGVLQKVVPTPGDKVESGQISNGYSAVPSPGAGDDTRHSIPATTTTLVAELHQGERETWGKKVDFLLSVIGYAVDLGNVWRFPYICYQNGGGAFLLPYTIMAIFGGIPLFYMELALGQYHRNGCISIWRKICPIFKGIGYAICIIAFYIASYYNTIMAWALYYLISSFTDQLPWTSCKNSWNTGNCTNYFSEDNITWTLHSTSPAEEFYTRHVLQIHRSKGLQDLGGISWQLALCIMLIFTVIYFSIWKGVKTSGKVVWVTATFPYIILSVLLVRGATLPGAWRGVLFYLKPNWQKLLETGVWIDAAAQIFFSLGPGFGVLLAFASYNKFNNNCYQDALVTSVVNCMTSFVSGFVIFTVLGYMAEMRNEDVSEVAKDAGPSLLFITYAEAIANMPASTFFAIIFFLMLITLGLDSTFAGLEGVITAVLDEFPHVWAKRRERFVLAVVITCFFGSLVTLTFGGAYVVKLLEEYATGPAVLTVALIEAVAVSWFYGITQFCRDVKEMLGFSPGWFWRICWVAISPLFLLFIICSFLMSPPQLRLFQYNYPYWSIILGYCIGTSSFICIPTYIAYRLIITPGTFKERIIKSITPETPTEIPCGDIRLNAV
Chain of 5-hydroxytryptamine receptor 6 (Homo sapiens) (P50406 whole entry): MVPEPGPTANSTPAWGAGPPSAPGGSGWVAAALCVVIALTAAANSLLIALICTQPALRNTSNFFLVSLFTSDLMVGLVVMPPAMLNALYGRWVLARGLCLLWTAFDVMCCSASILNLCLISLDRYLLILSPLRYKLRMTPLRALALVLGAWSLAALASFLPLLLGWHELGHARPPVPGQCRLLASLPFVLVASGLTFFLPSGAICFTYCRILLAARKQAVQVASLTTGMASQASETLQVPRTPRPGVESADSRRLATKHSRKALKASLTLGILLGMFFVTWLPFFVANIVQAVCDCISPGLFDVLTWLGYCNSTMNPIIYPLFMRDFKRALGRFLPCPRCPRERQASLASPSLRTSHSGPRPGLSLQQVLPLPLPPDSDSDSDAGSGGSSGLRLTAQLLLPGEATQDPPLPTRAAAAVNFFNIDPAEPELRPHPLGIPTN
Chain of D(2) dopamine receptor (Homo sapiens) (P14416 whole entry): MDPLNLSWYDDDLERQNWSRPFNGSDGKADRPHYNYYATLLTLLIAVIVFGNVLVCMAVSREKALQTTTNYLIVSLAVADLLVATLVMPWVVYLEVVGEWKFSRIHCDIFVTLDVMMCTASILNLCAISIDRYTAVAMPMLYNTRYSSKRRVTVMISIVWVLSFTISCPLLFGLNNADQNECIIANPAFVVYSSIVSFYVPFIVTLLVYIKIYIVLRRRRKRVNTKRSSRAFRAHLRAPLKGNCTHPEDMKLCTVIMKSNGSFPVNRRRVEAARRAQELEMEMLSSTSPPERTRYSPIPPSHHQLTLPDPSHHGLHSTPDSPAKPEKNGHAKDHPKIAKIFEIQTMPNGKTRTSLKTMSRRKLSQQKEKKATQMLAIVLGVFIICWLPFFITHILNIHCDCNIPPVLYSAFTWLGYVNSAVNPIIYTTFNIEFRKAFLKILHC
Chain of Kappa-type opioid receptor (Homo sapiens) (P41145 whole entry): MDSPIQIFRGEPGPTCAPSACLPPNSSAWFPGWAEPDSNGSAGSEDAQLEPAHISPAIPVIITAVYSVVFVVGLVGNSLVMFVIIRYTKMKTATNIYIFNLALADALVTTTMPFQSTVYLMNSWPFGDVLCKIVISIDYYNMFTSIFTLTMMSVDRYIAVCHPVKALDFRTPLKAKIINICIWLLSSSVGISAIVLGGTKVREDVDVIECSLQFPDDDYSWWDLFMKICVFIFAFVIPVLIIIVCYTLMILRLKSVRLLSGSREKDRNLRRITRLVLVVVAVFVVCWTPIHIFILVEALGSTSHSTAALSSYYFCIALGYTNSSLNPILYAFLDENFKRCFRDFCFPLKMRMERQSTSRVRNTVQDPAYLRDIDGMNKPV
Chain of Small conductance calcium-activated potassium channel protein 1 (Homo sapiens) (Q92952 whole entry): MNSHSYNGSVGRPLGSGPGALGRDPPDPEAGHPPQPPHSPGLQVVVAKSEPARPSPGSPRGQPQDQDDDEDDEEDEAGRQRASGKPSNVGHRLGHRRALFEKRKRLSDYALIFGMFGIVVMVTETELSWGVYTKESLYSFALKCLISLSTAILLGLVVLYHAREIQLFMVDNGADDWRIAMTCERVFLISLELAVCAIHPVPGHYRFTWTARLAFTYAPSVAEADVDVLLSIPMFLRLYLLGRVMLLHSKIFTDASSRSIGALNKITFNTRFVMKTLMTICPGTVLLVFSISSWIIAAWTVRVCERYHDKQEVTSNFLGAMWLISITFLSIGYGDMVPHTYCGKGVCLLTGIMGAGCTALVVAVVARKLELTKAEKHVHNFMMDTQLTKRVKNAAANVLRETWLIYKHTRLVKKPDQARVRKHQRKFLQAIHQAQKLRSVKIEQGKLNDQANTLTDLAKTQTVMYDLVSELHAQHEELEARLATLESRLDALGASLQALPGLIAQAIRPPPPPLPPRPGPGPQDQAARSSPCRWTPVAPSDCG
Chain of Histamine H1 receptor (Homo sapiens) (P35367 whole entry): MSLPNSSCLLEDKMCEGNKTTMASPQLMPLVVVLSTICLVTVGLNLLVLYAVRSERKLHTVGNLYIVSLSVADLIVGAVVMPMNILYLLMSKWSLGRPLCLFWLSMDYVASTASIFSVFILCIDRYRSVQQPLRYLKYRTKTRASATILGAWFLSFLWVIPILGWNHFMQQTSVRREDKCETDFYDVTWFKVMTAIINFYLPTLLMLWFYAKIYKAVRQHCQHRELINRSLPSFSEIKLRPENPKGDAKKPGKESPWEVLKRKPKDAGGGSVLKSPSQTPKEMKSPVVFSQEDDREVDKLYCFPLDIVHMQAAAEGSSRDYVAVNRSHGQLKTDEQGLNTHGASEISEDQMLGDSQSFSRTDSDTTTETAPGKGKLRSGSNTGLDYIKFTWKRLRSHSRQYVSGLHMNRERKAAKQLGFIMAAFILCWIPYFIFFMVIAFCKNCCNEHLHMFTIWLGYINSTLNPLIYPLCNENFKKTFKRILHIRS
Chain of Neurotensin receptor type 1 (Homo sapiens) (P30989 whole entry): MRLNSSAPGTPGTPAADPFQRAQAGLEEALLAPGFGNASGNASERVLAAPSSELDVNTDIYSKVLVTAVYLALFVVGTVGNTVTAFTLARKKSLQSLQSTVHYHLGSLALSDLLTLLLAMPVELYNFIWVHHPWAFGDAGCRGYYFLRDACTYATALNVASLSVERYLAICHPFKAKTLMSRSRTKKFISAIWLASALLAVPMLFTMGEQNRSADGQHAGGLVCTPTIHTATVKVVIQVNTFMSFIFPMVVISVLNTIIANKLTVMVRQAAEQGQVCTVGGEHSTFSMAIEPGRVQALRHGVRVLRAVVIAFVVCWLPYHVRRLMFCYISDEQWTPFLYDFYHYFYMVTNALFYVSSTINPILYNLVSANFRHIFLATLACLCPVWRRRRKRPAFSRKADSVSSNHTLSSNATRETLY

SMILES | inhibition (Homo sapiens) | inhibition [1] | inhibition [2] | inhibition [3] | inhibition [4] | inhibition [5] | inhibition [6] | inhibition [7] | inhibition [8] | inhibition [9] | inhibition [10] | IC50 (A549) [µM]
Cc1cc(C(N)=O)ccc1-c1c(CCC(=O)O)ccn1-c1ccc(-n2ccnc2)cc1 | inactive | inactive | inactive | inactive | inactive | inactive | inactive | inactive | inactive | inactive | inactive | > 250
Cc1cc(C(N)=O)ccc1-n1c(CCC(=O)O)ccc1-c1ccc(-n2ccnc2)cc1 [N6022] | inactive | inactive | inactive | inactive | inactive | inactive | inactive | inactive | inactive | inactive |  | 

Second part, led by results:

inhibition (Homo sapiens) | inhibition [1] | inhibition [2] | inhibition [3] | inhibition [4] | inhibition [5] | inhibition [6] | inhibition [7] | inhibition [8] | inhibition [9] | inhibition [10] | SMILES | IC50 (A549) [µM]
Active | Active | Active | Active | Active | Active | Active | Active | Active | Active | Active | COc1ccc(-c2ccn(-c3ccc(O)c([N+](=O)[O-])c3)c2-c2ccc(C(N)=O)cc2C)cc1 | 
inactive | inactive | inactive | inactive | inactive | inactive | inactive | inactive | inactive | inactive | inactive | Cc1cc(C(N)=O)ccc1-c1c(-c2ccc(-n3ccnc3)cc2)ccn1CCC(=O)O | 
Active | Active | Active | Active | Active | Active | Active | Active | Active | Active | Active | COc1ccc(-c2ccn(-c3ccc(C(=O)O)c(O)c3)c2-c2ccc(C(N)=O)cc2C)cc1 | 
